The numbers were not newly measured in PMC3277211 (Journal of the American Chemical Society, 2011), which cites them from elsewhere.

For orientation: MIC means the smallest concentration in the dilution series that meets the test's criterion for growth inhibition.

One series concerns S. aureus P29S PAS8001. To be noted: S. aureus NCTC 8325 SpsB(P29S) PAS8001; included for comparison.
A further series has as its system S. aureus NCTC 8325. Particulars: S. aureus NCTC 8325 wild type; included for comparison.
In a further series the test system is R. opacus DSM 1069. Particulars: included for comparison.
In series [1] the test system is P. aeruginosa P84L PAS2008. To be noted: P. aeruginosa PAO1 LepB(P84L) PAS2008; included for comparison.
The test system of a further series is C. glutamicum DSM 44475. To be noted: included for comparison.
A further series has as its system P. aeruginosa PAO1. To be noted: P. aeruginosa PAO1 wild type; included for comparison.
A further series concerns S. pneumoniae R800. Particulars: included for comparison.
For the next series, the system named is S. agalactiae COH-1. To be noted: included for comparison.
A further series deals with S. epidermidis RP62A. Particulars: included for comparison.
A further series deals with S. pyogenes MGAS-1. To be noted: included for comparison.
The test system of a further series is E. coli P84L PAS0260. To be noted: E. coli MG1655 LepB(P84L) PAS0260; included for comparison.

In the case of Arylomycin A-C16, the MIC is 2 µg/mL in the series on S. aureus P29S PAS8001; greater than 128 µg/mL in the series on S. aureus NCTC 8325; 2 µg/mL in the series on R. opacus DSM 1069; 8 µg/mL in series [1]; 4 µg/mL with C. glutamicum DSM 44475; greater than 128 µg/mL with P. aeruginosa PAO1. Moreover, the MIC is 8 µg/mL in the series with S. pneumoniae R800; greater than 128 µg/mL in the series on S. agalactiae COH-1; 0.25 µg/mL in the series on S. epidermidis RP62A; 8 µg/mL in the series with S. pyogenes MGAS-1; 2 µg/mL in the series with E. coli P84L PAS0260.
